# Reference: patent US11690895B2, “Compositions and methods of interferon alpha binding proteins” (priority 2017, dated 2023)
# How the values were obtained:
# [1] = test system: rat neurons; experiment: PSD-95 puncta on rat neurons exposed to IFNα; type: cell-based; conditions: IFNα 300 IU/mL, compared to control neurons
# Protocol: (§1) Rat neurons were either obtained from Brain Bits (Cat #SDECX; embryonic day 18) and cultured in NBACTIV1 media (Cat #nbactivl) until day 14, when they are relatively “mature”, or cortical neurons were prepared from embryonic day 18 Sprague Dawley fetuses. Two different densities of neurons were utilized, based on test procedures. For PSD-95 puncta, low density cultures (10,000 neurons/cm') were placed on 12 mm poly D Lysine (Sigma cat #2636) coated coverslips, incubated in wells with glia (astrocytes) or removed for IFNα (300 IU/ml) exposure. High density cultures (500,000 neurons/60 mm dish) were used for protein extraction. These cultures contained approximately 2-3% glia (GFAP immunostaining).
# Rat neurons were seeded on poly-L-lysine coated coverslips and co-cultured with astroglia. On day 14, half of the conditioned medium from co-culture was transferred to new 6 well plates. […] PSD-95 puncta were identified and counted with SYNPANAL software. […] PSD-95 puncta along the region were counted and divided by the length to obtain PSD-95 puncta/unit. […] For each treatment, the average puncta/unit was determined by averaging the puncta/unit for each neuron (at least 10/treatment in each replicate plate). For each treatment within the experiment, the average puncta/unit is determined by averaging the puncta/unit for each replicate of that treatment (thus, n=3/treatment) for 20 min and 2 hours. […]
# [2] = test system: Arf1; experiment: Arf1 expression in rat neuronal cultures (proteomics, Western blot); type: cell-based; conditions: IFNα 300 IU/ml
# Protocol: as §1
# Protein samples (5 to 10 micrograms) were resolved in Criterion precast gels (Bio-Rad) and transferred to a PVDF membrane using a semidry system (Bio-Rad). All blocking antibody and washing steps were performed at room temperature (RT) on a rocker. Membranes were incubated for one hour in 3% non-fat dry milk in TBST (25 mM Tris, 140 mM NaCl, 3 mM KCl, and 0.05% Tween-20), then 4 hr in anti-Arfl antibody (cat #ARP75924_P050, Aviva; 1:1000) diluted in 1% non-fat dry milk in TBST. Membranes were briefly washed in TBST followed by 3 separate 5 minute incubations in TBST. Membranes were incubated for one hour with goat anti-rabbit IgG HRP (cat #NEF812001EA, Perkin Elmer 1:5,000) diluted in 1% non-fat dry milk in TBST. Final washing included a quick rinse with ddH2O, 2 min wash in TBST, 4 min wash in TBST, and 5 min wash in 1× TBS. Immunoreactive bands were detected with chemiluminescence using ECL Prime substrate (cat #RPN2236, GE Healthcare Life Sciences) on a Chemidoc imager (Bio-Rad), and quantified with ImageJ (NIH). Arf1 signal was normalized to GAPDH Western blot (WB) intensity (cat #MAB374, Millipore;1:20,000).
# For proteomic analysis of total protein, rat cortical neurons were cultured in 60 mm dishes in high density (described above). After 14 days, cells were treated with 300 IU/mL IFNα for 20 min, 2 hr, 8 hr, 24 hr, or 48 hr. For comparison of the proteome, untreated cells were given sterile, distilled water (vehicle) equal to the volume of IFNα. After incubations, cells were washed once in RT phosphate buffered saline (PBS) and scraped into 500 microliters of PBS. Cell slurries were snap frozen in a dry ice ethanol bath and processed by the Emory University Proteomics Core.
# To select proteins for further analysis, GO-Elite software was used. […] These lists of accession numbers were derived by identifying proteins for which the total peptide spectral match (PSM) was seven-fold (or more) lower in the IFNα treated sample than in the control sample. […] Thus, Arfl was selected for WB analysis.
# [3] = test system: AMPA receptor (AMPAR); experiment: AMPA receptor (GLuR2) immunofluorescent staining of rat neurons; type: cell-based; conditions: IFNα exposure for 2 hours
# Protocol: Rat neurons were fixed with 4% paraformaldehyde in PBS for 20 min at RT. They were incubated with anti-GLuR2 (EMD Millipore, Burlington Mass.; 1:100), a subunit of the AMPA receptor (AMPAR), for 1 hour at RTO in the dark. After washes, this was followed by incubation with DAPI […] (Images were subjected ImageJ software for densitometric analysis).
# [4] = test system: rat neuronal cultures; conditions: mediated through IFNAR and NMDAR, earlier studies; cited from earlier work
substance,measurement,setting,value
IFNα,PSD-95 puncta,[1]; 20 minutes,significantly decreased
same,PSD-95 puncta,[1]; 2 hours,significantly decreased
same,Arf1 level (Western blot),[2]; 2 hours,decreases
same,Arf1 level (Western blot),[2]; 4 hours,decreases
same,Arf1 level (Western blot),[2]; 8 hours (data not shown),decreased
same,Arf1 level (Western blot),[2]; 24 hours (data not shown),not consistently
same,neuronal surface expression of AMPARs,[3],significantly decreased
same,effect on dendrites of rat neuronal cultures,[4],dendritic simplification
